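These data come from cells grown in 96-well plates and exposed to compound for 48 hours at five concentrations. GI50: concentration for 50% inhibition of growth.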 Activity calls are given as the source filed them. Cut-off read from the data, not from the text of the source: active = GI50 up to about 1.1 µM and inactive = higher. Square brackets hold non-standard residues; d marks the D form. Peptide text beside a SMILES is read from it. * marks the point of attachment. X26 = COC1=CC(=O)N(C(=O)[C@@H](O*)C(C)C)[C@H]1Cc1ccccc1; NMeV = CN[C@H](C(=O)O)C(C)C; Hexanoyl = CCCCCC(=O)*
Columns and labels:
Assay in all cases: DTP human tumour cell line panel, 48 h
786-0 = tested on: 786-0
CCRF-CEM = tested on: CCRF-CEM
COLO 205 = tested on: COLO 205
EKVX = tested on: EKVX
HCC 2998 = tested on: HCC 2998
HOP-62 = tested on: HOP-62
M14 = tested on: M14
Malme-3M = tested on: Malme-3M
NCI-H23 = tested on: NCI-H23
NCI-H460 = tested on: NCI-H460
OVCAR-4 = tested on: OVCAR-4
OVCAR-5 = tested on: OVCAR-5
PC-3 = tested on: PC-3
RXF 393 = tested on: RXF 393
SF-268 = tested on: SF-268
SF-295 = tested on: SF-295
HL-60 = tested on: HL-60
SR = tested on: SR

| SMILES | GI50 (786-0) | GI50 (CCRF-CEM) | GI50 (COLO 205) | GI50 (EKVX) | GI50 (HCC 2998) | GI50 (HOP-62) | GI50 (M14) | GI50 (Malme-3M) | GI50 (NCI-H23) | GI50 (NCI-H460) | GI50 (OVCAR-4) | GI50 (OVCAR-5) | GI50 (PC-3) | GI50 (RXF 393) | GI50 (SF-268) | GI50 (SF-295) | GI50 (HL-60) | GI50 (SR) |
| --- | --- | --- | --- | --- | --- | --- | --- | --- | --- | --- | --- | --- | --- | --- | --- | --- | --- | --- |
| COc1ccc(Nc2nc3ccc(C(F)(F)F)cc3nc2C(=O)O)cc1 | 44.8 µM (inactive) | 27 µM (inactive) | 34.1 µM (inactive) | 31.5 µM (inactive) | 24 µM (inactive) | 35.5 µM (inactive) | 36.4 µM (inactive) | 36.6 µM (inactive) | 20.6 µM (inactive) | 26 µM (inactive) | 47.8 µM (inactive) | 28.2 µM (inactive) | 29.6 µM (inactive) | 22.9 µM (inactive) | 37.7 µM (inactive) | 23.6 µM (inactive) |  |  |
| O=C(COc1ccc(OCC(=O)N2C(=O)CC/C2=N\c2ccc(Cl)cc2)cc1)N1C(=O)CS/C1=N\c1ccc(Cl)cc1 | > 100 µM (inactive) |  | 47.9 µM (inactive) | 76.9 µM (inactive) | > 100 µM (inactive) | 73.1 µM (inactive) | 89.7 µM (inactive) | 77.3 µM (inactive) | 42 µM (inactive) | 72.6 µM (inactive) | 75.3 µM (inactive) | > 100 µM (inactive) | 47.1 µM (inactive) | > 100 µM (inactive) | > 100 µM (inactive) | 52.8 µM (inactive) | 37.2 µM (inactive) |  |
| O=C1C=CC(=O)c2c1ccc1c3ccccc3n(CCCCCCCCn3c4ccccc4c4ccc5c(c43)C(=O)C=CC5=O)c21 | > 100 µM (inactive) | > 100 µM (inactive) | > 100 µM (inactive) | > 100 µM (inactive) | > 100 µM (inactive) | > 100 µM (inactive) | > 100 µM (inactive) | > 100 µM (inactive) | > 100 µM (inactive) | > 100 µM (inactive) | > 100 µM (inactive) | > 100 µM (inactive) | > 100 µM (inactive) | > 100 µM (inactive) | > 100 µM (inactive) | > 100 µM (inactive) | > 100 µM (inactive) |  |
| COc1ccc(Nc2nnc(CCCCCCCCc3nnc(Nc4ccc(OC)cc4)o3)o2)cc1 | > 100 µM (inactive) | > 100 µM (inactive) | > 100 µM (inactive) | > 100 µM (inactive) | > 100 µM (inactive) | > 100 µM (inactive) | > 100 µM (inactive) | > 100 µM (inactive) | > 100 µM (inactive) | > 100 µM (inactive) | > 100 µM (inactive) | > 100 µM (inactive) | > 100 µM (inactive) | > 100 µM (inactive) | > 100 µM (inactive) | > 100 µM (inactive) | > 100 µM (inactive) |  |
| OCC1OC(n2cnc3c(Cl)nc(Nc4ccc(Cl)c(Cl)c4)nc32)CC1O (centres undefined) | 8.73 µM (inactive) | 8.65 µM (inactive) | 11 µM (inactive) | 9.98 µM (inactive) | 7.8 µM (inactive) | 10.5 µM (inactive) | 10.7 µM (inactive) | 12 µM (inactive) | 10.2 µM (inactive) | 7.91 µM (inactive) | 10.1 µM (inactive) | 13.8 µM (inactive) | 9.57 µM (inactive) | 10.3 µM (inactive) | 12.7 µM (inactive) | 7.98 µM (inactive) | 7.05 µM (inactive) |  |
| Cc1ccnc2nc(-c3ccc4ccccc4c3)cc(O)c12 | 1.52 µM (inactive) | 1.04 µM (active) | 0.621 µM (active) | 4.36 µM (inactive) | 1.65 µM (inactive) | 2.08 µM (inactive) | 1.22 µM (inactive) | 1.14 µM (inactive) | 2.56 µM (inactive) |  | 1.71 µM (inactive) | 6.3 µM (inactive) |  |  | 3.1 µM (inactive) |  |  | 0.296 µM (active) |
| [O-][n+]1c2ccccc2[n+]([O-])c2cc(Br)ccc21 | 10.1 µM (inactive) | 0.0507 µM (active) | 20.7 µM (inactive) | 16.7 µM (inactive) | 16.5 µM (inactive) | 45 µM (inactive) | 17.2 µM (inactive) | 23.2 µM (inactive) | 21.5 µM (inactive) | 10.4 µM (inactive) | 18.9 µM (inactive) | 27.8 µM (inactive) |  | 18.1 µM (inactive) | 13.7 µM (inactive) | 20.6 µM (inactive) | 1.31 µM (inactive) | 2.02 µM (inactive) |
| COc1ccc(-c2csc(Cc3nc4ccccc4c(=O)n3-c3ccc(Cl)cc3)n2)cc1 | 28.6 µM (inactive) | 28.9 µM (inactive) | 34.9 µM (inactive) | 18.2 µM (inactive) | 29.9 µM (inactive) | > 100 µM (inactive) | 21.7 µM (inactive) | > 100 µM (inactive) | 28.8 µM (inactive) | 33.5 µM (inactive) | 52.6 µM (inactive) | 23.9 µM (inactive) | 29.4 µM (inactive) | > 100 µM (inactive) | 27.5 µM (inactive) | 50.4 µM (inactive) | 32.6 µM (inactive) |  |
| CN(C)c1ccc(/C=c2/c3ccccc3n3c2cc(C24CC5CC(CC(C5)C2)C4)[n+]3C)cc1 | 0.126 µM (active) | 0.117 µM (active) | 0.0877 µM (active) | 0.344 µM (active) | 0.353 µM (active) | 0.411 µM (active) | 0.32 µM (active) | 0.527 µM (active) | 0.261 µM (active) | 0.313 µM (active) | 0.337 µM (active) | 0.409 µM (active) | 0.125 µM (active) |  | 0.555 µM (active) | 0.32 µM (active) | 0.231 µM (active) |  |
| O=C(NCCCCN(CCCNC(=O)C(F)(F)F)Cc1ccccc1)C(F)(F)F | > 100 µM (inactive) | > 100 µM (inactive) | > 100 µM (inactive) | > 100 µM (inactive) | > 100 µM (inactive) | > 100 µM (inactive) | > 100 µM (inactive) |  | > 100 µM (inactive) | > 100 µM (inactive) | > 100 µM (inactive) | > 100 µM (inactive) | 92.3 µM (inactive) | > 100 µM (inactive) | > 100 µM (inactive) | > 100 µM (inactive) | > 100 µM (inactive) |  |
| CC(C)CCC[C@@H](C)[C@H]1CCC2C3CC=C4C[C@@H](Oc5c6ccccc6nc6ccccc56)CCC4C3CCC21 (some centres undefined) | > 50 µM (inactive) | > 50 µM (inactive) | > 50 µM (inactive) | > 50 µM (inactive) |  | > 50 µM (inactive) | > 50 µM (inactive) | > 50 µM (inactive) | > 50 µM (inactive) | > 50 µM (inactive) | > 50 µM (inactive) | > 50 µM (inactive) | > 50 µM (inactive) | > 50 µM (inactive) | > 50 µM (inactive) | > 50 µM (inactive) | > 50 µM (inactive) |  |
| CCCCCC(=O)N[C@H](C(=O)N[C@H](C(=O)N(C)[C@H](C(=O)N1CCC[C@H]1C(=O)N1CCC[C@H]1C(=O)O[C@H](C(=O)N1C(=O)C=C(OC)[C@@H]1Cc1ccccc1)C(C)C)C(C)C)C(C)C)C(C)C (Hexanoyl-VV[NMeV]PP-X26) | 57.9 µM (inactive) | 48.6 µM (inactive) | > 100 µM (inactive) | 85.9 µM (inactive) | > 100 µM (inactive) | > 100 µM (inactive) |  | > 100 µM (inactive) | > 100 µM (inactive) | > 100 µM (inactive) | > 100 µM (inactive) | 93.5 µM (inactive) | 25.2 µM (inactive) | 23.2 µM (inactive) | > 100 µM (inactive) | > 100 µM (inactive) | > 100 µM (inactive) |  |
